Among the data in ChEMBL document CHEMBL5260817, “Polyamine-based analogs and conjugates as antikinetoplastid agents” (Eur J Med Chem, 2017) are IC50, Ki and inhibition values, retold here.

Experiment [1] has as its system Trypanosoma brucei. The experiment in a line: Trypanocidal activity against Trypanosoma brucei K 243 strain. Format: functional, organism-based.
The test system of experiment [2] is Trypanosoma brucei. The experiment in a line: Trypanocidal activity against Trypanosoma brucei K 269 strain. Format: functional, organism-based.
Experiment [3] relates to Trypanosoma brucei. The experiment in a line: Trypanocidal activity against Trypanosoma brucei K 243-As-10-3 strain. Format: functional, organism-based.
Experiment [4] deals with Trypanosoma brucei. The experiment in a line: Trypanocidal activity against Trypanosoma brucei Lab 110 strain. Format: functional, organism-based.
The next experiment relates to Leishmania chagasi. The experiment in a line: Antiprotozoal activity against Leishmania chagasi measured after 3 days by MTT assay. As to conditions: 72 h. Format: functional, organism-based. A general note: Formazan colour is commonly taken as a measure of viable cells.
Experiment [5] concerns the target Trypanothione reductase (Trypanosoma brucei brucei, UniProt P39051). The experiment can be described thus: Inhibition of Trypanosoma brucei TryR assessed as inhibition constant.
For experiment [6], the system named is Leishmania amazonensis. The experiment can be described thus: Antiprotozoal activity against Leishmania amazonensis promastigotes measured after 48 hrs by MTT assay. Format: functional, organism-based.
In experiment [7] the target is Glutathione reductase, mitochondrial (Homo sapiens, UniProt P00390). The experiment in a line: Inhibition of human glutathione reductase.
Experiment [8] concerns the target T1, Trypanothione reductase (Trypanosoma cruzi, UniProt P28593). The experiment in a line: Inhibition of Trypanosoma cruzi TryR assessed as inhibition constant.
For experiment [9], the system named is Trypanosoma cruzi. The experiment can be described thus: Antiprotozoal activity against Trypanosoma cruzi JEM strain epimastigotes. Format: functional, organism-based.
For experiment [10], the system named is Trypanosoma cruzi. The experiment in a line: Antiprotozoal activity against Trypanosoma cruzi MG strain epimastigotes. The format is functional, organism-based.
A further experiment concerns Trypanosoma. The experiment can be described thus: Inhibition of Trypanosomal TryS at 10 uM relative to control.
Experiment [11] deals with Trypanosoma brucei rhodesiense. The experiment in a line: Antiprotozoal activity against Trypanosoma brucei rhodesiense. The format is functional, organism-based.
Experiment [12] relates to Trypanosoma brucei. The experiment can be described thus: Antiprotozoal activity against Trypanosoma brucei. Format: functional, organism-based.
Experiment [13] in a line: Inhibition of Trypanosoma brucei MetRS.
Experiment [14] has as its target T1, Trypanothione reductase. The experiment can be described thus: Inhibition of Trypanosoma cruzi TryR.
The subject of experiment [15] is Leishmania donovani. The experiment can be described thus: Antiprotozoal activity against Leishmania donovani promastigotes. The format is functional, organism-based.
The test system of a further experiment is Bacteria. The experiment in a line: Inhibition of TryR (unknown origin) at 10 uM relative to control.
Experiment [16] can be described thus: Inhibition of TryR (unknown origin) assessed as inhibition constant. The arrangement: species or system Bacteria.
The subject of experiment [17] is Trypanosoma cruzi. The experiment can be described thus: Antiprotozoal activity against Trypanosoma cruzi. The format is functional, organism-based.
Experiment [18] has as its target T1, Trypanothione reductase. The experiment can be described thus: Inhibition of Trypanosoma cruzi TryR assessed as inhibition constant in presence of NADPH.
The next experiment has as its system Leishmania braziliensis. The experiment in a line: Antiprotozoal activity against Leishmania braziliensis MHOM/PE/84/LC26 amastigotes infected in mouse J774.2 cells measured after 72 hrs. The following applies: J774.2, 72 h. The format is functional, organism-based.
Experiment [19] deals with Trypanosoma brucei brucei. The experiment in a line: Antiprotozoal activity against Trypanosoma brucei brucei. Format: functional, organism-based.
The subject of experiment [20] is Trypanosoma cruzi. The experiment can be described thus: Antiprotozoal activity against Trypanosoma cruzi epimastigotes. Format: functional, organism-based.
Experiment [21] has as its system Leishmania donovani. The experiment can be described thus: Antiprotozoal activity against Leishmania donovani MHOM/IN/1978/UR6 strain promastigotes assessed as parasite growth inhibition. Format: functional, organism-based.
Experiment [22] deals with Leishmania amazonensis. The experiment can be described thus: Antiprotozoal activity against Leishmania amazonensis measured after 3 days by MTT assay. As to conditions: 72 h. The format is functional, organism-based.

Several values for one entry are separate records, joined by “and”; a condition that tells them apart may be missing. Identical values can stand only once.

Sequence of Trypanothione reductase (Trypanosoma brucei brucei, UniProt P39051) (P39051 whole entry): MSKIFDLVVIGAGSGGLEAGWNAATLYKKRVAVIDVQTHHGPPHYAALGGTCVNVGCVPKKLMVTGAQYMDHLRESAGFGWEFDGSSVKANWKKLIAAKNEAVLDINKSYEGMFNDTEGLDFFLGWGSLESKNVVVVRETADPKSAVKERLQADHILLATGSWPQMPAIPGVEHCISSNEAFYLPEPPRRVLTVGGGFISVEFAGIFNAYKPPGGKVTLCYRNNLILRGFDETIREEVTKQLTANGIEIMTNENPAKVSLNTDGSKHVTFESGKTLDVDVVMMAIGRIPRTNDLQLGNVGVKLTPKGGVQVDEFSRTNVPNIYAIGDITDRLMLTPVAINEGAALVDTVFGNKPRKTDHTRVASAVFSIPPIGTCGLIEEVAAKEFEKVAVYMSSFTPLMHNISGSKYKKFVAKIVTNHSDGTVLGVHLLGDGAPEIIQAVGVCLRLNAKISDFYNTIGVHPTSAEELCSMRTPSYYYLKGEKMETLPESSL
T1 sequence (P28593 whole entry): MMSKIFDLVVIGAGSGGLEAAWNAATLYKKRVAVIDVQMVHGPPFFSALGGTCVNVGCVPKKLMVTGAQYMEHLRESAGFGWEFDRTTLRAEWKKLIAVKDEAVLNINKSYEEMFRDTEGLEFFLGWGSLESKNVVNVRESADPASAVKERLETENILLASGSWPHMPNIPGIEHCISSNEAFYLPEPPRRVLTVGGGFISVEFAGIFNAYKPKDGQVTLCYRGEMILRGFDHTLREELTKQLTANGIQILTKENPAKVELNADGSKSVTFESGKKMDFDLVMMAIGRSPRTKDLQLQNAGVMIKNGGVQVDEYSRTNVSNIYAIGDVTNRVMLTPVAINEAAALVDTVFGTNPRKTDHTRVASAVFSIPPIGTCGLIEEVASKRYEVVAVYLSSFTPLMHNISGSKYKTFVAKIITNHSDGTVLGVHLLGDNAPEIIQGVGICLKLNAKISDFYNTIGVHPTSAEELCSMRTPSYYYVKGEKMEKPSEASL
Sequence of Glutathione reductase, mitochondrial (P00390 whole entry): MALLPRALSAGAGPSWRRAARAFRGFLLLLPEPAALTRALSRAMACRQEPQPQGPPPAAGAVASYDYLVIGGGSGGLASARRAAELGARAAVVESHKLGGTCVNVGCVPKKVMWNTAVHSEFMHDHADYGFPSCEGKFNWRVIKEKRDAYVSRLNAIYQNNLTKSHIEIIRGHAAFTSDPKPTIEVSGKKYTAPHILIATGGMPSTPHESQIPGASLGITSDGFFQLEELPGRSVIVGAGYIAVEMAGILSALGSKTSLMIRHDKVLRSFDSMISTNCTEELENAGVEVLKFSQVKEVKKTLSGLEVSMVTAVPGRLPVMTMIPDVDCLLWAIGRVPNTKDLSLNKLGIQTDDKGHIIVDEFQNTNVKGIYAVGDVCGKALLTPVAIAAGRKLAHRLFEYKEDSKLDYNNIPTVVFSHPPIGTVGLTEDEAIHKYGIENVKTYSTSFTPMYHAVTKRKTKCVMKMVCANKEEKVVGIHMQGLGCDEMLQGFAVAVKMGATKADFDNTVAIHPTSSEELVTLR

In the case of `c1ccc(CCCN(CCCCN(CCCc2ccccc2)CCCN(CCCc2ccccc2)CCCc2ccccc2)CCCN(CCCc2ccccc2)CCCc2ccccc2)cc1`, the IC50 in the experiment on Trypanosoma brucei [1], in the experiment on Trypanosoma brucei [2], with Trypanosoma brucei [3] and in the experiment on Trypanosoma brucei [4] was 20 µM throughout.
For the compound `CCCNCCCCCCCCCNC(=O)[C@H](O)[C@H](O)[C@H](O)CO`, the half-inhibitory concentration (IC50) with Leishmania chagasi amounted to 2.5 µM.
For the compound `NCCCN(CCCCN(CCCN)CCCc1ccccc1)CCCc1ccccc1`, at Trypanothione reductase [5], the Ki worked out at 3 µM. Further, the IC50 with Trypanosoma brucei [1], in the experiment with Trypanosoma brucei [2], in the experiment with Trypanosoma brucei [3] and with Trypanosoma brucei [4] was 0.5 µM throughout.
Turning to `CC(C)=CCC/C(C)=C/CC/C(C)=C/CN1CCNCC1`, in the experiment with Leishmania amazonensis [6], half-maximal inhibition (IC50) was put at 13 µM.
As for `CCCCN(CCCC)CCCNC(=O)CCCCC1=C(C)C(=O)c2ccccc2C1=O`, in experiment [7], the IC50 was greater than 40 µM.
As for `CCCNCCCNC(=O)CNC(=O)[C@H](CCCC[C@H](NC(=O)OCC1c2ccccc2-c2ccccc21)C(=O)NCC(=O)NCCCNCCC)NC(=O)OCC1c2ccccc2-c2ccccc21`, the Ki at Trypanothione reductase [8] came out at 2 µM.
Regarding `CCCCCCCCCCCCCCC(N)CN` (centres undefined), the IC50 with Trypanosoma cruzi [9] and in the experiment with Trypanosoma cruzi [10] was greater than 19 µM in each case.
In turn, `CNCCNC(=O)CN1C(=O)Cc2c([nH]c3ccc(Br)cc23)-c2ccccc21` registered an inhibition in the experiment with Trypanosoma of 90%.
On to `C(CCCNCCCNCC1CCCCCC1)CCCNCCCNCC1CCCCCC1`, for which, in [11], the IC50 was found to be 0.16 µM.
Take `Clc1cc(Cl)cc(CNCCCNc2nc3ncccc3[nH]2)c1`: the IC50 worked out at 0.004 µM in the experiment with Trypanosoma brucei [12] and 0.001 µM in experiment [13].
On to `CCCCCCCCCCCCCC(=O)NCCCC(=O)N(CC(=O)Nc1cccc(Sc2ccc(Br)cc2NC(=O)CCN2CCN(C)CC2)c1)C(=O)Nc1ccccc1Sc1ccc(Br)cc1NC(=O)CCN1CCN(C)CC1`, for which, at Trypanothione reductase [14], the IC50 came to 0.2 µM.
`COc1cc(CN(CCCN)Cc2ccc(OCc3ccc(Br)cc3)c(OC)c2)ccc1OCc1ccc(Br)cc1` had an IC50 with Leishmania donovani [15] of less than 1 µM.
For the compound `c1ccc2cc(CNCCCCNCCCNCc3ccc4ccccc4c3)ccc2c1`, half-maximal inhibition with Trypanosoma brucei [12] (IC50) required 0.19 µM.
`O=C(Cc1c[nH]c2cc(Br)ccc12)NCCCNCCCCNCCCNC(=O)Cc1c[nH]c2cc(Br)ccc12` had an inhibition with Bacteria of 98%. In addition, the Ki in [16] was 0.076 µM and 0.08 µM.
`CCN(CCCCN1CN(C(CC(C)C)C(=O)O)CSC1=S)CCCN1CN(C(CC(C)C)C(=O)O)CSC1=S` (centres undefined) had an IC50 in the experiment on Trypanosoma cruzi [17] of 3.64 µM.
On Trypanothione reductase [14], `CCCCN(CCCC)CCCNC(=O)CCCC1=C(CCCC(=O)NCCCN(CCCC)CCCC)C(=O)c2c(O)cccc2C1=O` gave an IC50 of 0.6 µM.
For `CN1CCN(CCC(=N)Nc2cc(Cl)ccc2Sc2ccccc2)CC1`, the IC50 in experiment [11] came to 1.56 µM.
Take `CC(=O)N(CCCN)CCCCN`: the Ki on Trypanothione reductase [18] is greater than 2000 µM.
Turning to `CC(C)(C)OC(=O)N(CCCN)CCCCN`, the Ki on Trypanothione reductase [18] was greater than 2000 µM.
In the experiment on Trypanosoma brucei [12], `c1ccc(-c2cccc(CNCCCNCCCCCCCNCCCNCc3cccc(-c4ccccc4)c3)c2)cc1` yielded an IC50 of 1 µM.
As for `CN1CCN(CCC(=O)Nc2cc(Br)ccc2Sc2cccc(NC(=O)CCCC(=O)Nc3cccc(Sc4ccc(Br)cc4NC(=O)CCN4CCN(C)CC4)c3)c2)CC1`, the IC50 in the experiment on Leishmania braziliensis is 0.55 µM.
As to `N=C(NCCCNCCCCCCCNCCCNC(=N)NC1CCCCCC1)NC1CCCCCC1`, the IC50 in experiment [19] is greater than 15 µM.
`NCCCCN(Cc1ccccc1)Cc1ccc(OCc2ccccc2)cc1` yielded an IC50 with Leishmania donovani [15] of less than 1 µM.
Consider `CC(C)=CCC/C(C)=C/CC/C(C)=C/CNCCCN`, for which the IC50 in the experiment with Leishmania amazonensis [6] worked out at 4.9 µM.
In the case of `O=C(Cc1ccccc1)NCCCNCCCCNCCCNC(=O)Cc1ccccc1`, on Trypanothione reductase [5], the Ki was greater than 100 µM.
In the experiment on Trypanosoma cruzi [20], `CCCCCCCCCCNCCCCCCN` gave an IC50 of 14.3 µM.
As for `NCCCCN(CCCN)Cc1ccccc1`, at Trypanothione reductase [8], the Ki was greater than 100 µM.
`c1ccc(CNCCCCNCCCCCCCCCCCCNCCCNCc2ccccc2)cc1`: the IC50 with Leishmania donovani [21] is 4 µM.
For the compound `CCCCCCCCCCCC(=O)NCCCCN`, the IC50 with Leishmania amazonensis [22] and with Leishmania chagasi was 10 µM throughout.
For `c1ccc(CNCCCNCCCCNCCCNCc2ccccc2)cc1`, on Trypanothione reductase [5], the Ki was 19 µM.
`CC[C@H](C)CNCCCNCCCCCCCNCCCNC[C@@H](C)CC` returned an IC50 in experiment [19] of 0.04 µM.
`CCCCCCCCCCCCNCCN`: the values for the IC50 with Leishmania amazonensis [22] and in the experiment with Leishmania chagasi were 0.94 µM and 0.2 µM, respectively.

A word on the IC50: it is the point on the concentration scale where inhibition reaches its midpoint. What is called Ki is a measure of affinity in units of concentration, obtained from inhibition or displacement. A word on the inhibition: it is the share of the control response that was lost under treatment.
